The text below walks through data of patent US8481528B2 (Hoffmann-La Roche Inc., priority 2010, dated 2013).

pKi: −log10 of the molar value. Read-outs that look alike come from different tables or passages of the source.

This assay concerns the target T1, human V1a receptor (Homo sapiens, UniProt P37288).
T1 construct: expressed in transfected cells; host or cells: HEK293 cells, transiently transfected; cell membranes
Put plainly: human V1a receptor binding (3H-Vasopressin SPA, HEK293 membranes). As to conditions: for Ki: 3H-Vasopressin displacement, membranes of HEK293 cells transiently transfected with human V1a receptor, Ki by Cheng-Prusoff, read-out: pKi (hV1a) (converted). The protocol:
The human V1a receptor was cloned by RT-PCR from total human liver RNA. The coding sequence was subcloned in an expression vector after sequencing to confirm the identity of the amplified sequence. […] Cell membranes were prepared from HEK293 cells transiently transfected with the expression vector and grown in 20 liter fermenters with the following protocol.
50 g of cells are resuspended in 30 ml freshly prepared ice cold Lysis buffer (50 mM HEPES, 1 mM EDTA, 10 mM magnesium dichloride adjusted to pH=7.4+complete cocktail of protease inhibitor (Roche Diagnostics)). Homogenized with Polytron for 1 min and sonicated on ice for 2×2 minutes at 80% intensity (Vibracell sonicator). The preparation is centrifuged 20 min at 500 g at 4° C., the pellet is discarded and the supernatant centrifuged 1 hour at 43′000 g at 4° C. (19'000 rpm). The pellet is resuspended in 12.5 ml Lysis buffer+12.5 ml sucrose 20% and homogenized using a Polytron for 1-2 min. The protein concentration is determined by the Bradford method and aliquots are stored at −80° C. until use. For binding studies 60 mg Yttrium silicate SPA beads (Amersham®) are mixed with an aliquot of membrane in binding buffer (50 mM Tris, 120 mM sodium chloride, 5 mM potassium chloride, 2 mM calcium dichloride, 10 mM magnesium dichloride) for 15 minutes with mixing. 50 μl of bead/membrane mixture is then added to each well of a 96 well plate, followed by 50 μl of 4 nM 3H-Vasopressin (American Radiolabeled Chemicals). For total binding measurement 100 μl of binding buffer are added to the respective wells, for non-specific binding 100 μl of 8.4 mM cold vasopressin and for compound testing 100 μl of a serial dilution of each compound in 2% dimethyl sulfoxide. The plate is incubated 1 h at room temperature, centrifuged 1 min at 1000 g and counted on a Packard Top-Count. Non-specific binding counts are subtracted from each well and data is normalized to the maximum specific binding set at 100%. To calculate an IC50 the curve is fitted using a non-linear regression model (XLfit) and the Ki is calculated using the Cheng-Prussoff equation.

T1 sequence (P37288 whole entry): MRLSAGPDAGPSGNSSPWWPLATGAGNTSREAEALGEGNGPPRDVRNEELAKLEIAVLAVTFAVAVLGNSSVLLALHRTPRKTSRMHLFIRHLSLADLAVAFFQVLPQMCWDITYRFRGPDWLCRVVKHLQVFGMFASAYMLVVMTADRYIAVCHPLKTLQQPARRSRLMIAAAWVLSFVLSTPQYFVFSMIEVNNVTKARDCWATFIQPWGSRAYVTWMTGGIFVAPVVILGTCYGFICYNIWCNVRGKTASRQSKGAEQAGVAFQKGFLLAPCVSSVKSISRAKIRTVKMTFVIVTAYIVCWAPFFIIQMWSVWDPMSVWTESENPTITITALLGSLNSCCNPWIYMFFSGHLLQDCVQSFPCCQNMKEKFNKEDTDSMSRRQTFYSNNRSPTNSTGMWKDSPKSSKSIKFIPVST

On to `CS(=O)(=O)N1Cc2cc(Cl)ccc2-n2c(nnc2[C@H]2CC[C@H](c3nsc4ccccc43)CC2)C1` [Example 26, trans-1-(4-Benzo[d]isothiazol-3-yl-cyclohexyl)-8-chloro-5-methanesulfonyl-5,6-dihydro-4H-2,3,5,10b-tetraaza-benzo[e]azulene], for which the Ki was 0.302 nM.

With `CC(C)(C)OC(=O)N1Cc2cc(Cl)ccc2-n2c(nnc2[C@H]2CC[C@H](c3nsc4cccnc43)CC2)C1` [Example 27, trans-8-Chloro-1-(4-isothiazolo[4,5-b]pyridin-3-yl-cyclohexyl)-4H,6H-2,3,5,10b-tetraaza-benzo[e]azulene-5-carboxylic acid tert-butyl ester], the Ki is 4.27 nM. As to `Clc1ccc2c(c1)CNCc1nnc([C@H]3CC[C@H](c4nsc5cccnc54)CC3)n1-2` [Example 28, trans-8-Chloro-1-(4-isothiazolo[4,5-b]pyridin-3-yl-cyclohexyl)-5,6-dihydro-4H-2,3,5,10b-tetraaza-benzo[e]azulene], the Ki is 1.1 nM.

For the compound `CN1Cc2cc(Cl)ccc2-n2c(nnc2[C@H]2CC[C@H](c3nsc4cccnc43)CC2)C1` [Example 29, trans-8-Chloro-1-(4-isothiazolo[4,5-b]pyridin-3-yl-cyclohexyl)-5-methyl-5,6-dihydro-4H-2,3,5,10b-tetraaza-benzo[e]azulene], the Ki is 0.794 nM. As to `CC(C)(C)OC(=O)N1Cc2cc(Cl)ccc2-n2c(nnc2[C@H]2CC[C@H](c3nsc4cnccc43)CC2)C1` [Example 30], the Ki is 5.5 nM. As to `Clc1ccc2c(c1)CNCc1nnc([C@H]3CC[C@H](c4nsc5cnccc54)CC3)n1-2` [Example 31, trans-8-Chloro-1-(4-isothiazolo[5,4-c]pyridin-3-yl-cyclohexyl)-5,6-dihydro-4H-2,3,5,10b-tetraaza-benzo[e]azulene], the Ki is 2.57 nM. `CN1Cc2cc(Cl)ccc2-n2c(nnc2[C@H]2CC[C@H](c3nsc4cnccc43)CC2)C1` [Example 32]: the Ki is 0.891 nM. Turning to `CC(C)(C)OC(=O)N1Cc2cc(Cl)ccc2-n2c(nnc2[C@H]2CC[C@@H](c3nsc4ccccc43)CC2)C1` [Example 33, cis-1-(4-Benzo[d]isothiazol-3-yl-cyclohexyl)-8-chloro-4H,6H-2,3,5,10b-tetraaza-benzo[e]azulene-5-carboxylic acid tert-butyl ester], the Ki is 1.1 nM. In the case of `Clc1ccc2c(c1)CNCc1nnc([C@H]3CC[C@@H](c4nsc5ccccc54)CC3)n1-2` [Example 34, cis-1-(4-Benzo[d]isothiazol-3-yl-cyclohexyl)-8-chloro-5,6-dihydro-4H-2,3,5,10b-tetraaza-benzo[e]azulene], the pKi is 7.59.

Consider `CN1Cc2cc(Cl)ccc2-n2c(nnc2[C@H]2CC[C@@H](c3nsc4ccccc43)CC2)C1` [Example 35, cis-1-(4-Benzo[d]isothiazol-3-yl-cyclohexyl)-8-chloro-5-methyl-5,6-dihydro-4H-2,3,5,10b-tetraaza-benzo[e]azulene], for which the Ki was 4.27 nM.
